Experimental data from patent US20260234157A1, “COMPOUND AND METHOD FOR TARGETED DEGRADATION OF ANDROGEN RECEPTOR” (Gan & Lee Pharmaceuticals Co., Ltd., priority 2023, published 2026).
Numbering of substitutions follows the chain as printed. Like-named read-outs stand apart in the source and are kept apart here.

Experiments:
Type in all cases: cell-based
AR protein [1] = molecular target: T1, AR protein (Homo sapiens, UniProt P10275, T878A); assay: Degradation of AR protein in LNCaP cells (Western blot); details: for inhibition at 0.01 µM: read-out: Degradation rates of the AR protein in LNCaP cells, 10 nM (%); for inhibition at 0.1 µM: read-out: Degradation rates of the AR protein in LNCaP cells, 100 nM (%)
T1 construct: degradation activity of the compounds disclosed in the present disclosure on AR protein in LNCaP cells; host or cells: LNCaP FGC
T1 sequence (P10275 1-920 T878A): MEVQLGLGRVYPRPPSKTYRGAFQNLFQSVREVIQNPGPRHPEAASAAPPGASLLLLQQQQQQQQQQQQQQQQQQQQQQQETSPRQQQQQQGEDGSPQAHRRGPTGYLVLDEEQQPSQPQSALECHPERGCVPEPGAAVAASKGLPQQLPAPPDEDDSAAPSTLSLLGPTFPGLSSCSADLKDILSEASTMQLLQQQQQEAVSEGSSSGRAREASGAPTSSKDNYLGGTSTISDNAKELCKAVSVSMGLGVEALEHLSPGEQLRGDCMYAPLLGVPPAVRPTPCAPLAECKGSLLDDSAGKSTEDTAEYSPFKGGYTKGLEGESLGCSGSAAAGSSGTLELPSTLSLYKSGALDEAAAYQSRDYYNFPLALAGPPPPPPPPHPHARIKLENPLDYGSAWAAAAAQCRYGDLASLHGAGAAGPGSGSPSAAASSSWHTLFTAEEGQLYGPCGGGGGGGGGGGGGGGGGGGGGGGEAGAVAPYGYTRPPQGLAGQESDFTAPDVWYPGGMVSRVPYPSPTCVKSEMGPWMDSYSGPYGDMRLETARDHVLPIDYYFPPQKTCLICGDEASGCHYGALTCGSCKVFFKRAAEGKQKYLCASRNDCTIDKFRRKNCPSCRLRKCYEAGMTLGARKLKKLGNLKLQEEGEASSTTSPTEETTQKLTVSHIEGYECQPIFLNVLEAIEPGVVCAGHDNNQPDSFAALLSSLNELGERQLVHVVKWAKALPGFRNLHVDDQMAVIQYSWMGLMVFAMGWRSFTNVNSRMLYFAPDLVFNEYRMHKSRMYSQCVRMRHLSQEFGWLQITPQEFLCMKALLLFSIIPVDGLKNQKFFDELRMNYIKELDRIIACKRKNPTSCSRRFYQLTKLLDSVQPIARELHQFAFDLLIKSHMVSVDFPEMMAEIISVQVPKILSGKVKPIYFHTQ
Method in brief: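 Percent AR degradation was derived from GAPDH-normalised Western blot band intensities (infrared detection) in LNCaP lysates.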

AR protein [2] = molecular target: T2, AR protein (Homo sapiens, UniProt P10275); assay: Degradation of AR protein in VCaP cells (Western blot); details: 8 hours; for inhibition at 0.01 µM: compound at 10 nM, read-out: Degradation rate of the AR protein in VCaP cells, 10 nM (%); for inhibition at 0.1 µM: compound at 100 nM, read-out: Degradation rate of the AR protein in VCaP cells, 100 nM (%)
T2 construct: degradation activity of the compounds disclosed in the present disclosure on AR protein in VCaP cells; host or cells: VCaP
T2 sequence (P10275 1-920): T1 sequence (P10275 1-920 T878A) with A878T
Method in brief: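 Western blot readout: AR band grayscale normalised to GAPDH, used to derive degradation rate. Lysates came from VCaP cells exposed to compound for 8 h, with solvent controls run in parallel.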

LNCaP FGC cells = assay: Inhibition of proliferation of LNCaP cells (WST-8); details: Homo sapiens, LNCaP, 96 h
Method: The cells were cultured in a cell culture incubator with 5% CO2 at 37° C. overnight. […] On the sixth day, 96 well plates were taken out, and 20 μL of WST-8 (Beytime, C0040) reagent was added to each well.

VCaP cells = assay: Inhibition of proliferation of VCaP cells (WST-8); details: Homo sapiens, read-out: IC50 for inhibiting the proliferation of VCaP cells
Method in brief: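 Proliferation was read by WST-8 on day nine. Cells were VCaP FGC, seeded at 15000 cells per well in 10% FBS DMEM and kept at 37° C with 5% CO2.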

[3] = LNCaP cells, compound 10 nM, 8 hours, Western blot grayscale, GAPDH internal reference
[4] = LNCaP cells, compound 100 nM, 8 hours, Western blot grayscale, GAPDH internal reference
[5] = LNCaP FGC cells, 96 hours, WST-8 absorbance at 450 nm, read-out: IC50 for inhibiting the proliferation of LNCaP cells
[6] = VCaP cells, 168 hours, WST-8 absorbance at 450 nm

| SMILES | inhibition at 0.01 µM (AR protein [1]; [3]) | inhibition at 0.1 µM (AR protein [1]; [4]) | inhibition at 0.01 µM (AR protein [2]) | inhibition at 0.1 µM (AR protein [2]) | IC50 (LNCaP FGC cells; [5]) | IC50 (VCaP cells; [6]) | inhibition at 0.01 µM (AR protein [1]; LNCaP, 8 h) | inhibition at 0.1 µM (AR protein [1]; LNCaP, 8 h) | IC50 (LNCaP FGC cells; read-out: IC50 for inhibiting the proliferation of LNCaP cells, LNCaP FGC cells, 96 hours, WST-8 absorbance at 450 nm) | IC50 (VCaP cells; VCaP, 168 h) |
| --- | --- | --- | --- | --- | --- | --- | --- | --- | --- | --- |
| N#Cc1ccc(O[C@H]2CC[C@H](NC(=O)c3ccc(N4CCC5(CCC(N6CCC7(CC6)COc6cc8c(cc6C7)C(=O)N(C6CCC(=O)NC6=O)C8=O)CC5)C4)nn3)CC2)cc1Cl (stereo partly drawn) [Compound 62] | 46% | 76% | 66% | 74% | 820 nM | 520 nM |  |  |  |  |
| CCC1(CN2CCC3(CC2)COc2c3ccc3c2C(=O)N(C2CCC(=O)NC2=O)C3=O)CCN(c2ccc(C(=O)N[C@H]3CC[C@H](Oc4ccc(C#N)c(OC)c4)CC3)nn2)CC1 (stereo partly drawn) [Compound 250] | -14% | 67% | 15% | 61% | > 90000 nM | 160 nM |  |  |  |  |
| N#Cc1ccc(O[C@H]2CC[C@H](NC(=O)c3ccc(N4CC5(CCC(N6CCC7(CCc8cc9c(cc8O7)C(=O)N(C7CCC(=O)NC7=O)C9=O)CC6)CC5)C4)nn3)CC2)cc1Cl (stereo partly drawn) [Compound 33] | 27% | 61% | 49% | 52% | 2210 nM | 1700 nM |  |  |  |  |
| N#Cc1ccc(O[C@H]2CC[C@H](NC(=O)c3ccc(N4CCC(N5CCC6(CCc7cc8c(cc7O6)C(=O)N(C6CCC(=O)NC6=O)C8=O)CC5)CC4)nn3)CC2)cc1Cl (stereo partly drawn) [Compound 26] |  |  | 48% | 56% |  |  | 61% | 56% | 1200 nM | 750 nM |
| COc1cc(OC2CCC(NC(=O)c3cnc(N4CCC(C)(CN5CCC6(CC5)COc5c6ccc6c5C(=O)N(C5CCC(=O)NC5=O)C6=O)CC4)nc3)CC2)ccc1C#N (stereo not drawn) [Compound 246] | 17% | 43% | -19% | 61% | 870 nM | 120 nM |  |  |  |  |
| CC1(CN2CCC3(CC2)COc2c3ccc3c2CN(C2CCC(=O)NC2=O)C3=O)CCN(c2ccc(C(=O)N[C@H]3CC[C@H](Oc4ccc(C#N)c(Cl)c4)CC3)nc2)CC1 (stereo partly drawn) [Compound 259] | -16% | 44% | 33% | 78% | 73 nM | 1.2 nM |  |  |  |  |
| N#Cc1ccc(O[C@H]2CC[C@H](NC(=O)c3ccc(N4CC[C@H](CN5CCC6(CC5)COc5cc7c(cc56)C(=O)N(C5CCC(=O)NC5=O)C7=O)C4)nn3)CC2)cc1Cl (stereo partly drawn) [Compound 58] | 33% | 58% | 91% | 93% | 1800 nM | 69 nM |  |  |  |  |
| N#Cc1ccc(O[C@H]2CC[C@H](NC(=O)c3ccc(N4CC(CN5CCC6(CC5)COc5cc7c(cc5C6)C(=O)N(C5CCC(=O)NC5=O)C7=O)C4)nn3)CC2)cc1Cl (stereo partly drawn) [Compound 59] | 43% | 66% | 86% | 87% | 400 nM | 110 nM |  |  |  |  |

More lines, main results first:

| inhibition at 0.01 µM (AR protein [1]; [3]) | inhibition at 0.1 µM (AR protein [1]; [4]) | inhibition at 0.01 µM (AR protein [2]) | inhibition at 0.1 µM (AR protein [2]) | IC50 (LNCaP FGC cells; [5]) | IC50 (VCaP cells; [6]) | SMILES | inhibition at 0.01 µM (AR protein [1]; LNCaP, 8 h) | inhibition at 0.1 µM (AR protein [1]; LNCaP, 8 h) | IC50 (LNCaP FGC cells; read-out: IC50 for inhibiting the proliferation of LNCaP cells, LNCaP FGC cells, 96 hours, WST-8 absorbance at 450 nm) | IC50 (VCaP cells; VCaP, 168 h) |
| --- | --- | --- | --- | --- | --- | --- | --- | --- | --- | --- |
| 55% | 44% | 63% | 82% | 50200 nM | 11 nM | N#Cc1ccc(O[C@H]2CC[C@H](NC(=O)c3ccc(N4CC5(CCC(C(=O)N6CCC7(CC6)COc6c7ccc7c6CN(C6CCC(=O)NC6=O)C7=O)CC5)C4)nn3)CC2)cc1Cl (stereo partly drawn) [Compound 255] |  |  |  |  |
| 47% | 40% | 9% | 28% | 72000 nM | 110 nM | COc1cc(O[C@H]2C(C)(C)[C@H](NC(=O)c3ccc(N4CCC(F)(CN5CCC6(CCc7cc8c(cc7O6)C(=O)N(C6CCC(=O)NC6=O)C8=O)CC5)CC4)cc3)C2(C)C)ccc1C#N (stereo partly drawn) [Compound 270] |  |  |  |  |
| -14% | 18% | -2% | 6% | 60900 nM | 9420 nM | COc1cc(O[C@H]2C(C)(C)[C@H](NC(=O)c3ccc(N4CCC(C)(CN5CC6(CCc7ccc8c(c7O6)C(=O)N(C6CCC(=O)NC6=O)C8=O)C5)CC4)cc3)C2(C)C)ccc1C#N (stereo partly drawn) [Compound 290] |  |  |  |  |
| 28% | 62% | 39% | 64% | 1900 nM | 850 nM | N#Cc1ccc(O[C@H]2CC[C@H](NC(=O)c3ccc(N4CCC5(CCC(N6CCC7(CCc8cc9c(cc8O7)C(=O)N(C7CCC(=O)NC7=O)C9=O)CC6)CC5)CC4)nn3)CC2)cc1Cl (stereo partly drawn) [Compound 30] |  |  |  |  |
| 66% | 61% | 34% | 78% | 44400 nM | 1.5 nM | COc1cc(O[C@H]2C(C)(C)[C@H](NC(=O)c3ccc(N4CCC(C)(CN5CC6(CCc7cc8c(cc7O6)C(=O)N(C6CCC(=O)NC6=O)C8)C5)CC4)cc3)C2(C)C)ccc1C#N (stereo partly drawn) [Compound 265] |  |  |  |  |
| 1% | 1% | -4% | 26% | 3730 nM | 3170 nM | N#Cc1ccc(O[C@H]2CC[C@H](NC(=O)c3ccc(N4CCC5(CCC(N6CCC7(CC6)COc6ccc8c(c6C7)C(=O)N(C6CCC(=O)NC6=O)C8)CC5)CC4)nn3)CC2)cc1Cl (stereo partly drawn) [Compound 149] |  |  |  |  |
| 22% | 53% | 58% | 64% | 3600 nM | 520 nM | N#Cc1ccc(O[C@H]2CC[C@H](NC(=O)c3ccc(N4CC5(CC(N6CCC7(CCc8cc9c(cc8O7)C(=O)N(C7CCC(=O)NC7=O)C9=O)CC6)C5)C4)nn3)CC2)cc1Cl (stereo partly drawn) [Compound 32] |  |  |  |  |
